Where a SMILES comes first, the peptide text is derived from it. [ ]: non-standard residue; d: D form. Gla = N[C@@H](CC(C(=O)O)C(=O)O)C(=O)O
How the values were obtained:
[1] = test system: Frings audiogenic seizure susceptible mice; settings: mouse, in vivo
NR1-1b/NR2B NMDA subtype = target: T1, NR1-1b/NR2B NMDA subtype (Homo sapiens, UniProt Q05586+Q13224); assay type: cell-based
T1 construct: expressed in transfected cells; host or cells: oocytes

NR1. 1B subtype = target: T2, NR1. 1B subtype (Homo sapiens, UniProt Q05586); assay type: cell-based
T2 construct: expressed in transfected cells; host or cells: oocytes

T1 sequence (Q13224 27-1484, other chains not shown): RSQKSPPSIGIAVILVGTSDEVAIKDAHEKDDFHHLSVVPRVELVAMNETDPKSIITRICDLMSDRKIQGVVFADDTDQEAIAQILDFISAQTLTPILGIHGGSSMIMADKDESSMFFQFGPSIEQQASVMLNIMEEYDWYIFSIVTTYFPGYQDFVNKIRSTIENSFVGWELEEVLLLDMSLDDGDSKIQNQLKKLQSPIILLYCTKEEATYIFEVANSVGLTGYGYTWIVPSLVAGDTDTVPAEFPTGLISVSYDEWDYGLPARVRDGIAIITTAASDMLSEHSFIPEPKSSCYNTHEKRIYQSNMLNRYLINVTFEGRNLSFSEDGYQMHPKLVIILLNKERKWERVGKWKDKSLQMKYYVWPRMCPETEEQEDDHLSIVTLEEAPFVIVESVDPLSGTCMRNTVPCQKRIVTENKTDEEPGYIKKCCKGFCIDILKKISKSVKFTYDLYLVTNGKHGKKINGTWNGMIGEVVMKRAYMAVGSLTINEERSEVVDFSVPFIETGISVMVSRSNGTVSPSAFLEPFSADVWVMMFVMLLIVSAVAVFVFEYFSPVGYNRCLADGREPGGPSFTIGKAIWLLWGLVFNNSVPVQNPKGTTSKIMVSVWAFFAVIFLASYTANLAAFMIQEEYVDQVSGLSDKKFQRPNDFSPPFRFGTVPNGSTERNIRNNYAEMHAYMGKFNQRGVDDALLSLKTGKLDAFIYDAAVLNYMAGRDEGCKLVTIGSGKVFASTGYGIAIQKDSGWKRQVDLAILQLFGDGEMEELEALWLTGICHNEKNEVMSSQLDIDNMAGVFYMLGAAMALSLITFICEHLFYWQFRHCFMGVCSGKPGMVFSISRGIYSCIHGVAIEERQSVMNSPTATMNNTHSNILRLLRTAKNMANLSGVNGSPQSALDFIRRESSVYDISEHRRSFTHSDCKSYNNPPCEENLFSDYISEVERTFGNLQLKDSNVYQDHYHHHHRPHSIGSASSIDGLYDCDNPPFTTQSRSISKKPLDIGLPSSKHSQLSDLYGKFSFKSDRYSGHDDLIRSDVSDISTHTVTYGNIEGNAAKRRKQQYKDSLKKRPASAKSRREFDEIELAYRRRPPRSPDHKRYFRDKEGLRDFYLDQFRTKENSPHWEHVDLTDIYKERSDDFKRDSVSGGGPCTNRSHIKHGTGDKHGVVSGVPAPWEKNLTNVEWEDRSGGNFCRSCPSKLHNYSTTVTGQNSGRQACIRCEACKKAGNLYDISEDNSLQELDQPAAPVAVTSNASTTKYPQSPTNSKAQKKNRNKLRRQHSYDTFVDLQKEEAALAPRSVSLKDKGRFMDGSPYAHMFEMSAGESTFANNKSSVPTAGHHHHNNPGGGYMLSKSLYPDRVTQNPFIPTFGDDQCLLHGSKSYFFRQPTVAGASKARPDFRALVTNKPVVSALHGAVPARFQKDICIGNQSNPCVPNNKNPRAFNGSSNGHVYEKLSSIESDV

Structure (SMILES)	ED50 [1] [nmols]	ED50 (pmol, i.c.v.) [1] [pmol]	affinity for NR1-1b/NR2B relative to NR1-1b/NR2D (NR1-1b/NR2B NMDA subtype)	inhibition of the current produced in response to glutamate and glycine (NR1-1b/NR2B NMDA subtype)	selectivity for the B splice variant in heteromeric complexes (NR1-1b/NR2B NMDA subtype)	inhibition of homomeric NR1 complex, 1B subtype (NR1. 1B subtype)
CSCC[C@H](NC(=O)[C@H](CCCCN)NC(=O)[C@H](CCC(N)=O)NC(=O)[C@H](Cc1ccc(O)cc1)NC(=O)[C@H](CC(C(=O)O)C(=O)O)NC(=O)[C@H](CC(C(=O)O)C(=O)O)NC(=O)[C@H](CCC(=O)O)NC(=O)CN)C(=O)N[C@@H](CC(C)C)C(=O)N[C@@H](CC(C(=O)O)C(=O)O)C(=O)N[C@@H](CC(N)=O)C(=O)N[C@@H](CC(C)C)C(=O)N[C@@H](CCCNC(=N)N)C(=O)N[C@@H](CC(C(=O)O)C(=O)O)C(=O)N[C@@H](C)C(=O)N[C@@H](CCC(=O)O)C(=O)N[C@H](C(=O)N[C@@H](CCCCN)C(=O)N[C@@H](CCCCN)C(=O)N[C@@H](CC(N)=O)C(=O)N[C@@H](C)C(N)=O)C(C)C [Con T, Gly-Glu-Xaa1-Xaa1-Tyr-Gln-Lys-Met-Leu-Xaa2-Asn-Leu-Arg-Xaa2-Ala-Glu-Val-Lys-Lys-Asn-Ala] (H-GE[Gla][Gla]YQKML[Gla]NLR[Gla]AEVKKNA-NH2)	0.017	5.1				
CC[C@H](C)[C@H](NC(=O)[C@H](CC(N)=O)NC(=O)[C@H](CC(C(=O)O)C(=O)O)NC(=O)[C@H](CCCNC(=N)N)NC(=O)[C@H](C)NC(=O)[C@H](CC(C)C)NC(=O)[C@H](CC(C(=O)O)C(=O)O)NC(=O)[C@H](C)NC(=O)[C@H](C)NC(=O)[C@H](CCSC)NC(=O)[C@H](CCCCN)NC(=O)[C@H](C)NC(=O)[C@@H](NC(=O)[C@H](CC(C(=O)O)C(=O)O)NC(=O)[C@H](CC(C(=O)O)C(=O)O)NC(=O)[C@H](CCC(=O)O)NC(=O)CN)C(C)C)C(=O)N[C@@H](C)C(=O)N[C@@H](CCCCN)C(=O)NCC(=O)N[C@H]1CSSC[C@@H](C(=O)N[C@@H](Cc2ccc(O)cc2)C(=O)N2CCC[C@H]2C(=O)O)NC(=O)[C@H](CC(N)=O)NC(=O)[C@H](C(C)C)NC(=O)[C@H](CCCCN)NC1=O [Con R]			greater than 50 fold	approximately 95%	selective for the B splice variant	only inhibited the NR1. 1B subtype

From patent US6399574B1 (priority 1997, dated 2002)
